What was measured:
E. aero 13048 = assay: Selective lysis test, OD600 turbidity (Example 1); assay type: cell-based, Enterobacter aerogenes
Experimental: (§1) An isolated colony from an overnight Tryptocase Soy Agar (TSA) plate of each bacterial strain was suspended in 1 ml Tryptocasc Soy Broth (TSB) in a 5 ml BD polystyrene round bottom tube. TSB cultures were incubated shaking at 37° C. overnight. Ten of the overnight culture was inoculated into lml TSB and incubated shaking at 37° C. for three hours. Two […] aliquots of each log-phase culture were then transferred to two 2 ml Eppendorf microcentrifuge tubes. One tube contained 5000 of Normal Saline (BD); the second tube contained 5000 Normal Saline with meropenem at 10 μg/ml (final concentration of meropenem of 6.67 10 μg/ml). Tubes were inverted and then incubated at 37° C. stagnant for thirty minutes. Then […] of lysis buffer (0.5% SDS in PSB) (final concentration of SDS of 0.125%) was added to each tube and the tubes were vortexed for 5 seconds. Post incubation, all tubes were spun at 10000 G for 5 minutes. Supernatant was decanted and the pellet resuspended in Normal Saline. Tubes were vortexed again. OD600 was measured using Eppendorf uvettes in a spectrophotometer. The delta between the OD600 of the normal saline control and the OD600 for the test sample exposed to meropenem in normal saline was used to determine susceptibility of the bacterial strain to meropenem.

E. clo 13047 = assay: Selective lysis test, OD600 turbidity (Example 1); assay type: cell-based, Enterobacter cloacae
Experimental: as §1

E. coli 23848 = assay: Selective lysis test, OD600 turbidity (Example 1); assay type: cell-based, Escherichia coli
Experimental: as §1

E. coli 25922 = assay: Selective lysis test, OD600 turbidity (Example 1); assay type: cell-based, Escherichia coli
Experimental: as §1

E. coli 35218 = assay: Selective lysis test, OD600 turbidity (Example 1); assay type: cell-based, Escherichia coli
Experimental: as §1

K. pneumo 33495 = assay: Selective lysis test, OD600 turbidity (Example 1); assay type: cell-based, Klebsiella pneumoniae
Experimental: as §1

K. pneumo 700603 = assay: Selective lysis test, OD600 turbidity (Example 1); assay type: cell-based, Klebsiella pneumoniae
Experimental: as §1

K. pneumo 8308 = assay: Selective lysis test, OD600 turbidity (Example 1); assay type: cell-based, Klebsiella pneumoniae
Experimental: as §1

K. pneumo 9633 = assay: Selective lysis test, OD600 turbidity (Example 1); assay type: cell-based, Klebsiella pneumoniae
Experimental: as §1

E. coli strain 23858 = assay: Selective lysis test, BacUni QuickFISH staining (Example 3); assay type: cell-based; conditions: FIG. 2; E. coli 23858; meropenem 10 μg/ml, 30 min, SDS lysis
Excerpt: (§2) An alternative to the spectrophotometer-based measurement of changes in turbidity for measuring cell lysis following treatment with the cell lysis conditions in Examples 1 and 2 is to stain samples using a stain that distinguishes between intact cells and lysed cells. In this example staining with BacUni QuickFISH™ was used to identify intact (i.e., non-lysed) cells. BacUN1 is a universal bacteria PNA probe that binds to an rRNA sequence present in most Gram-positive and Gram-negative bacteria. The PNA probe binds to universal rRNA in intact bacterial cells and the entire cell will appears green with fluorescent microscopy. If the bacterial cell had been lysed then the rRNA target would have been released from the bacterial cell and even of somewhat labeled it would not appear as a fluorescent bacterial cell.
(§3) An isolated colony from an overnight Tryptocase Soy Agar (TSA) plate of each bacteria was suspended in 1 ml Tryptocase Soy Broth (TSB) in a 5 ml BD polystyrene round bottom tube. TSB cultures were incubated at 37° C. overnight. Ten μl of overnight culture was inoculated into 1 ml TSB and incubated shaking at 37° C. for three hours. Two 250 μl aliquots of each log-phase culture was transferred to two 2 ml Eppendorf microcentrifuge tubes. One tube contained 500 μl of Normal Saline (BD); the second tube contained 500 μl Normal Saline with meropenem at 10 μg/ml. Tubes were inverted and then incubated at 37° C. stagnant for thirty minutes. Then […] (0.5% SDS in PSB) was added to each tube and the tubes were vortexed for 5 seconds. Post incubation, the entire culture was filtered through a 1 uM polycarbonate 18 mm filter. The filter was transferred to a plain glass slide and placed on a 55° C. heat block. Then 2 drops of 100% methanol were added to adhere the filter to the slide. Then 30 μl of BacUni QuickFISH™ hybridization buffer was added to the slide and a 50×22 mm coverslip was applied. The slide was then incubated at 55° C. for 15 minutes. The slide was viewed on fluorescence microscope using 60× oil immersion on Dual TxR/FITC. Images were taken with a 1 second exposure.

E. coli strain 25922 = assay: as above; assay type: cell-based; conditions: FIG. 3; E. coli 25922; meropenem 10 μg/ml, 30 min, SDS lysis
Excerpt: as §2, §3

E. coli strain 35218 = assay: as above; assay type: cell-based; conditions: FIG. 3; E. coli 35218; meropenem 10 μg/ml, 30 min, SDS lysis
Excerpt: as §2, §3

[1] = system: E. coli strain BAA-197 ESβL; assay: as above; assay type: cell-based; conditions: FIG. 1; E. coli BAA-197 ESβL; meropenem 10 μg/ml, 30 min, SDS lysis
Excerpt: as §2, §3

[2] = system: K. pneumoniae strain 13882; assay: as above; assay type: cell-based; conditions: FIG. 2; K. pneumoniae 13882; meropenem 10 μg/ml, 30 min, SDS lysis
Excerpt: as §2, §3

[3] = system: K. pneumoniae strain 3456; assay: as above; assay type: cell-based; conditions: FIG. 1; K. pneumoniae 3456; meropenem 10 μg/ml, 30 min, SDS lysis
Excerpt: as §2, §3

[4] = system: K. pneumoniae strain BAA1705 KPC+; assay: as above; assay type: cell-based; conditions: FIG. 5, meropenem 10 μg/ml, 30 min, SDS lysis
Excerpt: as §2, §3

[5] = system: K. pneumoniae strain BAA2146 NDM+; assay: as above; assay type: cell-based; conditions: FIG. 5, meropenem 10 μg/ml, 30 min, SDS lysis
Excerpt: as §2, §3

[6] = OD600 vs control without meropenem
[7] = meropenem 10 μg/ml, 30 min, SDS lysis buffer + vortex

C[C@@H](O)[C@H]1C(=O)N2C(C(=O)O)=C(S[C@@H]3CN[C@H](C(=O)N(C)C)C3)[C@H](C)[C@H]12 [meropenem]
R or S (E. aero 13048): S (a percentage change of greater than about 85% indicates a strain is susceptible) | % Change (E. aero 13048; [6]): 97% | Mero OD600 (E. aero 13048; [7]): 0.077 | R or S (E. clo 13047): S (a percentage change of greater than about 85% indicates a strain is susceptible) | % Change (E. clo 13047; [6]): 95% | Mero OD600 (E. clo 13047; [7]): 0.06 | R or S (E. coli 23848): S (a percentage change of greater than about 85% indicates a strain is susceptible) | % Change (E. coli 23848; [6]): 97% | Mero OD600 (E. coli 23848; [7]): 0.021 | R or S (E. coli 25922): S (a percentage change of greater than about 85% indicates a strain is susceptible) | % Change (E. coli 25922; [6]): 97% | Mero OD600 (E. coli 25922; [7]): 0.064 | R or S (E. coli 35218): S (a percentage change of greater than about 85% indicates a strain is susceptible) | % Change (E. coli 35218; [6]): 90% | Mero OD600 (E. coli 35218; [7]): 0.1 | R or S (K. pneumo 33495): S (a percentage change of greater than about 85% indicates a strain is susceptible) | % Change (K. pneumo 33495; [6]): 95% | Mero OD600 (K. pneumo 33495; [7]): 0.097 | R or S (K. pneumo 700603): S (a percentage change of greater than about 85% indicates a strain is susceptible) | % Change (K. pneumo 700603; [6]): 94% | Mero OD600 (K. pneumo 700603; [7]): 0.065 | R or S (K. pneumo 8308): S (a percentage change of greater than about 85% indicates a strain is susceptible) | % Change (K. pneumo 8308; [6]): 98% | Mero OD600 (K. pneumo 8308; [7]): 0.053 | R or S (K. pneumo 9633): S (a percentage change of greater than about 85% indicates a strain is susceptible) | % Change (K. pneumo 9633; [6]): 99% | Mero OD600 (K. pneumo 9633; [7]): 0.015 | number of BacUni QuickFISH stained cells, treated vs not treated (E. coli strain 23858): significant reduction in the number of stained cells | number of BacUni QuickFISH stained cells, treated vs not treated (E. coli strain 25922): significant reduction in the number of stained cells | number of BacUni QuickFISH stained cells, treated vs not treated (E. coli strain 35218): significant reduction in the number of stained cells | number of BacUni QuickFISH stained cells, treated vs not treated [1]: significant reduction in the number of stained cells | number of BacUni QuickFISH stained cells, treated vs not treated [2]: significant reduction in the number of stained cells | number of BacUni QuickFISH stained cells, treated vs not treated [3]: significant reduction in the number of stained cells | number of BacUni QuickFISH stained cells, treated vs not treated [4]: similarity in the number of stained cells | number of BacUni QuickFISH stained cells, treated vs not treated [5]: similarity in the number of stained cells
